Laboratory results reported in patent US8772499B2, “TRPV3 modulators” (AbbVie Inc., priority 2011, dated 2014).

Legend:
TRPV3 = TRPV3 agonist, relatively weak and nonspecific across TRPs; cited from earlier work
[1] = In vitro human microsomal stability assay; type: in vitro ADME; conditions: human, microsomes, 0.5 h, 0.5 μM, pH 7.4
In short: (§1)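 Metabolic stability measured in Sprague-Dawley rat or human liver microsomes at 37 °C. Reactions supplemented with NADPH.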

human TRPV3 = molecular target: T1, human TRPV3 (Homo sapiens, UniProt Q8NET8); assay: In vitro antagonism of recombinant human TRPV3 activation (FLIPR Tetra calcium assay); type: cell-based; conditions: HEK293 cells stably expressing human TRPV3; agonist 2-APB at 80 μM; actual measured value shown parenthetically; in most cases average of at least two runs; read-out: IC50
T1 construct: expressed in transfected cells
T1 sequence (Q8NET8 1-790): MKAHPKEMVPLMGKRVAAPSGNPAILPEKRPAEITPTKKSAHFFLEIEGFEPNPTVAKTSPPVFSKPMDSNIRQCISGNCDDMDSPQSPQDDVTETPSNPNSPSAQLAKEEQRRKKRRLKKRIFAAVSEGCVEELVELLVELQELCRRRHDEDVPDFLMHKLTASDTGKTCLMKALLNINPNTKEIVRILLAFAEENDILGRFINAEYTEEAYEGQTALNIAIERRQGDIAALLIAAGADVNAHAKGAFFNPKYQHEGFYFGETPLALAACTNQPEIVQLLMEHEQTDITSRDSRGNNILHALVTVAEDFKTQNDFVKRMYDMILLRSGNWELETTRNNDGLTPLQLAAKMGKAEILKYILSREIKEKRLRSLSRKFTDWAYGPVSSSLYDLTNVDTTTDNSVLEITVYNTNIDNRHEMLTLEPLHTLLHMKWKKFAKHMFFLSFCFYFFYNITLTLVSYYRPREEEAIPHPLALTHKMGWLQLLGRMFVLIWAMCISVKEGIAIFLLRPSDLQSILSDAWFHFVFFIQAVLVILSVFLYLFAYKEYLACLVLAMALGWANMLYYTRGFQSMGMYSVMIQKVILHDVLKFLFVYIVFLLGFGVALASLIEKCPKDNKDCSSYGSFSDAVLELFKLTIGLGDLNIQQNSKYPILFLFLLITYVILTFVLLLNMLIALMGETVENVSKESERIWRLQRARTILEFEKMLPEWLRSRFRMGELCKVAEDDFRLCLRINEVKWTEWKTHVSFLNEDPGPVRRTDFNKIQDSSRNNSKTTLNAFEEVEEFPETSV
In short: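 HEK293 cells stably expressing human TRPV3, loaded with Calcium-4 dye for 90–120 min, received compound in DPBS, then 80 μM 2-APB (EC80) 3 min later. Max-minus-min fluorescence expressed as % of 2-APB response without antagonist; IC50 values mostly averages of n≥2 runs.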

[2] = test system: chronic constriction injury (CCI) model of neuropathic pain; assay: In vivo chronic constriction injury (CCI) model of neuropathic pain, mechanical allodynia (von Frey); design: species or system CD1 mice; conditions: Mus musculus, po, 1 h, 100 mg/kg oral dose, mechanical allodynia 1 hour after dosing, CCI mice, average of eight mice; vehicle 0%, control 100%; read-out: % EFFECT
Procedure: Test compounds were evaluated for analgesic effect in an in vivo chronic constriction injury (CCI) model of neuropathic pain. CD1 mice (Charles River) were used for these studies. Prior to testing (2-4 weeks) animals underwent a surgical procedure consisting of approximately 3 loose ligatures around the sciatic nerve. Following sterilization procedures, under isofluorane anesthetic, a 1.5 cm incision was made dorsal to the pelvis. The biceps femoris and gluteous superficialis (right side) were separated and the sciatic nerve exposed, isolated, and 2-4 loose ligatures (5-0 chromic gut) with less than 1 mm spacing were placed around it. Following hemostasis, the wound was sutured (layer of muscle closed with 5-0 nylon suture, and the wound closed with surgical staples) and coated with iodine. The mice were allowed to recover on a warming plate and were returned to their home cages (soft bedding) when able to walk on their own.
Two to four weeks after the surgery, test compound was administered orally (PO) in these mice, and mechanical allodynia was evaluated 1 hour after oral dosing where the threshold to response was assessed using calibrated von Frey monofilaments. The von Frey monofilaments were applied to the hind paw at increasing forces until the animal responded by lifting its paw. Normally, the force of the von Frey monofilament was innocuous and only in the altered state (allodynia or hyperalgesia) did the animals respond to this stimulation. […] At the end of the experiment, after behavioral testing, plasma (and in some instances brain tissue) was taken for exposure analysis.
Each test compound was evaluated in eight different mice. The data reported in Table 3 represent the average value of the approximate percent effect of each compound in relieving neuropathic pain in mice receiving 100 mg/kg oral dose of the test compound. The grams of force needed to elicit a withdrawal response from the injured mouse that was challenged with vehicle was assigned a 0% effect, while the grams of force needed to elicit a withdrawal response from the control was given a 100% effect.

[3] = In vitro rat microsomal stability assay; type: in vitro ADME, rat (Sprague-Dawley); conditions: Sprague-Dawley, rat, microsomes, 0.5 h, 0.5 μM, pH 7.4
In short: as §1

c1ccc(B(OB(c2ccccc2)c2ccccc2)c2ccccc2)cc1 [DPBA, diphenylboronic anhydride]
EC50 (TRPV3): ~40 µM

NCCOB(c1ccccc1)c1ccccc1 [Example 2-APB, 2-aminoethoxydiphenylborate]
EC50 (TRPV3): ~40 µM

OC1CC(c2cc(C(F)(F)F)ccn2)(C(O)c2ccccn2)C1 [Example 283, trans-3-[(S)-hydroxy(pyridin-2-yl)methyl]-3-[4-(trifluoromethyl)pyridin-2-yl]cyclobutanol]
HUMAN MICROSOMAL STABILITY (% REMAINING AFTER 30 MINUTES) [1]: >85% | IC50 (human TRPV3): 0.69 µM | inhibition in vivo at 100 mg/kg [2]: 49% | RAT MICROSOMAL STABILITY (% REMAINING AFTER 30 MINUTES) [3]: >85%

OC1CC(c2ccnc(C(F)(F)F)c2)(C(O)c2ccccn2)C1 [Example 306, trans-3-[(S)-hydroxy(pyridin-2-yl)methyl]-3-[2-(trifluoromethyl)pyridin-4-yl]cyclobutanol]
HUMAN MICROSOMAL STABILITY (% REMAINING AFTER 30 MINUTES) [1]: >85% | IC50 (human TRPV3): 0.14 µM | inhibition in vivo at 100 mg/kg [2]: 0% | RAT MICROSOMAL STABILITY (% REMAINING AFTER 30 MINUTES) [3]: >85%
